{
  "source": "patent US5780653A",
  "about": "“Nitrophenyl, 10-deacetylated substituted taxol derivatives as dual functional cytotoxic/radiosensitizers” (Vivorx Pharmaceuticals, Inc., priority 1995, dated 1998)",
  "key": {"[1]": {"tested_on": "breast adenocarcinoma cell line MCF-7", "experiment": "In vitro cytotoxicity of paclitaxel derivatives (macroscopic colony formation)", "assay_type": "cell-based", "procedure": "Taxol derivatives were assayed for their cytotoxic activities on tumor cell lines in vitro. The breast adenocarcinoma cell line MCF-7 was chosen as a model for the cytotoxicity assay. The cell line was maintained in RPMI 1640 medium supplemented with 10% fetal bovine serum. For the cell survival experiments, a number of 100 mm petri dishes were plated with 5×10^5 cells. Exponentially growing cells were exposed to paclitaxel or paclitaxel derivatives at various concentrations 24 hours later. After exposure to paclitaxel and derivatives for various times, the cells were rinsed, trypsinized and washed with medium. The cells were resuspended as single cell suspensions, counted with a particle counter, plated and incubated for macroscopic colony formation. Following a one to two week incubation, the colonies were fixed with methanol/acetic acid, stained with crystal violet and colonies with more than 50 cells counted. […] The survival was reported as the fraction of cells surviving after exposure to paclitaxel or derivatives thereof. As an example, the cytotoxicity of the derivative synthesized in Example 9, i.e., 3'-Desphenyl-3'-(4-nitrophenyl)-N-debenzoyl-N-(t-butoxycarbonyl)-10-deacetyltaxol, is reported herein."}, "tubulin": {"tested_on": "tubulin", "experiment": "In vitro microtubule assembly of paclitaxel derivatives (turbidity, absorbance at 350 nm)", "assay_type": "biochemical", "details": "for absorbance (at 350 nm), tubulin polymerization at 10° C. / absorbance (at 350 nm), tubulin polymerization at 37° C.: 10 μM tubulin, 10 μM taxol or derivative; for absorbance (at 350 nm), tubulin polymerization at 10° C.: pH 6.8, 10° C.; for absorbance (at 350 nm), tubulin polymerization at 37° C.: pH 6.8, 37° C.", "source_text": "Paclitaxel inhibits cell replication in the mitotic phase of the cell cycle by promoting polymerization and stabilization of microtubules. Microtubules are polymers of tubulin in dynamic equilibrium with tubulin heterodimers that are composed of alpha and beta protein subunits. Unlike other antimicrotubule agents, such as the vinca alkaloids (that induce microtubule disassembly), paclitaxel shifts the equilibrium towards microtubule assembly. Paclitaxel-induced microtubules are excessively stable, thereby inhibiting the dynamic reorganization of the microtubule network. The cytotoxic properties of paclitaxel are caused by its unique disruptive effects on microtubules. Thus the activity of taxol or taxol analogs and derivatives may be assessed in vitro by their ability to polymerize tubulin into microtubules (Chaudhary et al. Journal of the American Chemical Society 116:4097-4098 (1994). The polymerization of tubulin is accompanied by a concomitant increase in solution turbidity associated with the formation of microtubules. This increase in turbidity can be assayed spectrophotometrically.\nThus, 10 μM tubulin was dissolved in 0.1M MES buffer containing 100 μM GTP and 0.5 mM MgCl2 with a final pH of 6.8. 10 μM tubulin was added to the buffer. 10 μM of taxol (or taxol derivatives) was added to the buffer at 0° C. and the absorbance of the sample measured at 350 nm as the sample temperature increased rapidly to 37° C. with the aid of a circulating water bath connected to the sample chamber of the spectrophotometer. The maximum absorbance of the sample was measured and compared to that of taxol as a control to determine any change in activity of the paclitaxel derivatives."}, "microtubule": {"tested_on": "microtubule", "details": "compared with paclitaxel; cited from earlier work"}, "[2]": {"details": "compared with paclitaxel; cited from earlier work"}, "central nervous system": {"tested_on": "central nervous system", "details": "large-scale clinical trials; cited from earlier work"}, "cultured mammalian cells": {"tested_on": "cultured mammalian cells", "details": "cited from earlier work"}, "rodent tumors": {"tested_on": "rodent tumors", "details": "some rodent tumors; cited from earlier work"}, "[3]": {"tested_on": "grade III human astrocytoma cell line, G18", "details": "paclitaxel pretreatment and gamma irradiation; cited from earlier work"}, "[4]": {"tested_on": "HL-60 human leukemic cell line", "details": "cited from earlier work"}, "[5]": {"tested_on": "three human ovarian cancer cell lines", "details": "cited from earlier work"}, "[6]": {"tested_on": "cervical carcinoma cell lines", "details": "cited from earlier work"}, "[7]": {"tested_on": "human breast and lung cell lines", "details": "cited from earlier work"}, "[8]": {"details": "intravenous infusion every 2-3 weeks, patients; cited from earlier work"}, "[9]": {"details": "cited from earlier work"}},
  "data": [
    {"molecule": "3'-Desphenyl-3'-(4-nitrophenyl)-N-debenzoyl-N-(isopropoxycarbonyl)-10-deacetyltaxol [Example 9]", "values": [
      {"measurement": "surviving fraction of MCF-7 cells", "setting": "[1]; 10 nM, 24 hours", "result": "2×10^-3"},
      {"measurement": "increase in cytotoxicity over unmodified taxol", "setting": "[1]; MCF-7, 10 nM, 24 hours", "result": 30, "unit": "fold"}
    ]},
    {"molecule": "CC(=O)O[C@@]12CO[C@@H]1C[C@H](O)[C@@]1(C)C(=O)[C@H](O)C3=C(C)[C@@H](OC(=O)C(O)C(NC(=O)OC(C)(C)C)c4ccc([N+](=O)[O-])o4)C[C@@](O)([C@@H](OC(=O)c4ccccc4)[C@H]21)C3(C)C", "note": "(some centres unmarked) [Example 6]", "values": [
      {"measurement": "absorbance (at 350 nm), tubulin polymerization at 10° C.", "setting": "tubulin", "result": 0.37},
      {"measurement": "absorbance (at 350 nm), tubulin polymerization at 37° C.", "setting": "tubulin", "result": 0.71},
      {"measurement": "tubulin polymerization activity relative to taxol (ratio of absorbances)", "setting": "tubulin; 37° C.", "result": "2.4 times that of taxol"},
      {"measurement": "activity in tubulin assembly compared with unmodified taxol", "setting": "tubulin; both at low temperature and at physiological temperatures", "result": "substantially more active in tubulin assembly than unmodified taxol"}
    ]},
    {"molecule": "CC(=O)O[C@@]12CO[C@@H]1C[C@H](O)[C@@]1(C)C(=O)[C@H](O)C3=C(C)[C@@H](OC(=O)[C@H](O)[C@@H](NC(=O)OC(C)(C)C)c4ccccc4)C[C@@](O)([C@@H](OC(=O)c4ccccc4)[C@H]21)C3(C)C", "note": "[docetaxel]", "values": [
      {"measurement": "microtubule assembly activity", "setting": "microtubule", "result": "more active than paclitaxel"},
      {"measurement": "cytotoxicity", "setting": "[2]", "result": "more active than paclitaxel"}
    ]},
    {"molecule": "COCC(O)Cn1ccnc1[N+](=O)[O-]", "note": "(centres unmarked) [misonidazole]", "values": [
      {"measurement": "toxicity to the central nervous system", "setting": "central nervous system", "result": "toxic to the central nervous system"},
      {"measurement": "hypoxic-cell sensitization, cultured mammalian cells", "setting": "cultured mammalian cells", "result": "excellent hypoxic-cell sensitizer"},
      {"measurement": "hypoxic-cell sensitization, rodent tumors", "setting": "rodent tumors", "result": "excellent hypoxic-cell sensitizer"}
    ]},
    {"molecule": "CC(=O)O[C@H]1C(=O)[C@@]2(C)[C@H]([C@H](OC(=O)c3ccccc3)[C@]3(O)C[C@H](OC(=O)[C@H](O)[C@@H](NC(=O)c4ccccc4)c4ccccc4)C(C)=C1C3(C)C)[C@]1(OC(C)=O)CO[C@@H]1C[C@@H]2O", "note": "[paclitaxel]", "values": [
      {"measurement": "absorbance (at 350 nm), tubulin polymerization at 10° C.", "setting": "tubulin", "result": 0.0},
      {"measurement": "absorbance (at 350 nm), tubulin polymerization at 37° C.", "setting": "tubulin", "result": 0.295},
      {"measurement": "polymerization of tubulin at 10° C.", "setting": "tubulin; taxol (10 μM), 10° C.", "result": "would not polymerize tubulin"},
      {"measurement": "polymerization of tubulin at 37° C.", "setting": "tubulin; taxol (10 μM), 37° C.", "result": "would promote polymerization"},
      {"measurement": "viability at 0.01 µM", "setting": "[1]; Homo sapiens, MCF7, 24 h, read-out: surviving fraction of MCF-7 cells", "result": 6, "unit": "%"},
      {"measurement": "enhancement of radiosensitivity, G18", "setting": "[3]", "result": "significant enhancement of radiosensitivity"},
      {"measurement": "radiosensitization, HL-60", "setting": "[4]", "result": "radiosensitization"},
      {"measurement": "radiosensitization, human ovarian cancer cell lines", "setting": "[5]", "result": "radiosensitization"},
      {"measurement": "enhancement in radiosensitization, cervical carcinoma", "setting": "[6]", "result": "have not observed an enhancement in radiosensitization"},
      {"measurement": "enhancement in radiosensitization, human breast and lung", "setting": "[7]", "result": "have not observed an enhancement in radiosensitization"},
      {"measurement": "serum half-life", "setting": "[8]", "result": "up to 19 h"},
      {"measurement": "in vivo radiopotentiation", "setting": "[9]", "result": "potent in vivo radiopotentiating agent"}
    ]}
  ]
}
